Earlier results as cited in patent publication US20070071809A1, “Ginger containing compositions to control pain” (priority 2005, published 2007).

System: osteoarthritis of the knee
Settings: 1500 mg per day

Question: Which “knee pain in patients with osteoarthritis of the knee” value (212 patients, half glucosamine, half placebo) does the source give for `N[C@H]1C(O)O[C@H](CO)[C@@H](O)[C@@H]1O` (some centres unmarked) [Glucosamine] here?
Answer: reduce knee pain

Question: And the “pain scores versus placebo group” value (placebo group had worsened pain scores)?
Answer: statistically improved pain scores
